Reference: ChEMBL document CHEMBL1201862, “PubChem BioAssay data set” (2004)
Active and inactive are the calls of the source.

Tests used:
[1] = molecular target: Intestinal-type alkaline phosphatase (Homo sapiens, UniProt P09923); experiment: activation of human intestinal alkaline phosphatase – biochemical, dose response (AID 488873); type: functional
[2] = molecular target: Large T antigen (Simian virus 40, UniProt P03070); type: functional, Betapolyomavirus macacae;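 note: Confirmatory-stage PubChem screen for compounds that inhibit SV40 T antigen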
Sequence of Large T antigen (P03070 whole entry): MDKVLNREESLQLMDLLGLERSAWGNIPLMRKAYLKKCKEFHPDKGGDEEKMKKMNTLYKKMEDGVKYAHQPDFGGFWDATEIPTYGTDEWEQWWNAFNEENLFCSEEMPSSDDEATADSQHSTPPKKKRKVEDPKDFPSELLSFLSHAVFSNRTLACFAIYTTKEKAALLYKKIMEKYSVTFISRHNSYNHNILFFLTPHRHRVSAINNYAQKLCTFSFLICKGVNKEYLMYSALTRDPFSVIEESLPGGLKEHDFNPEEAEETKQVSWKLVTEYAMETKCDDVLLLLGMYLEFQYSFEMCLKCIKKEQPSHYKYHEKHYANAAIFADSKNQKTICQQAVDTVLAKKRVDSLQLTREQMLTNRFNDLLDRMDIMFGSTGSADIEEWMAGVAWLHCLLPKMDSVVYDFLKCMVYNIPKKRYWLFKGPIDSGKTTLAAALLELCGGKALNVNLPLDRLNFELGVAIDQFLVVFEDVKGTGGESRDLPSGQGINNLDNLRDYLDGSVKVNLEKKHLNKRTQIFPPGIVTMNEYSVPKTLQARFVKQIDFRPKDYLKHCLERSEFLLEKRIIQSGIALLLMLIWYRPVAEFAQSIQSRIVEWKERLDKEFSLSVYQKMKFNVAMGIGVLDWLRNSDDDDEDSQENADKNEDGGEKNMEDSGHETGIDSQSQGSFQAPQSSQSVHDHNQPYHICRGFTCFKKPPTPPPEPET

[3] = molecular target: Caspase-7 (Homo sapiens, UniProt P55210); experiment: human caspase-7 inhibitors, dose response, selectivity assay for caspase-6 inhibitor project, biochemical, DEVD-R110 fluorescence, cherry-pick (AID 743295)
[4] = molecular target: Eukaryotic translation initiation factor 4H (Homo sapiens, UniProt Q15056); experiment: human eIF4H binding inhibitors, primary screen, translation initiation inhibitor project, biochemical, uHTS, fluorescence polarization (AID 2012)
[5] = molecular target: Induced myeloid leukemia cell differentiation protein Mcl-1 (Homo sapiens, UniProt Q07820); type: functional
Sequence of Induced myeloid leukemia cell differentiation protein Mcl-1 (Q07820 whole entry): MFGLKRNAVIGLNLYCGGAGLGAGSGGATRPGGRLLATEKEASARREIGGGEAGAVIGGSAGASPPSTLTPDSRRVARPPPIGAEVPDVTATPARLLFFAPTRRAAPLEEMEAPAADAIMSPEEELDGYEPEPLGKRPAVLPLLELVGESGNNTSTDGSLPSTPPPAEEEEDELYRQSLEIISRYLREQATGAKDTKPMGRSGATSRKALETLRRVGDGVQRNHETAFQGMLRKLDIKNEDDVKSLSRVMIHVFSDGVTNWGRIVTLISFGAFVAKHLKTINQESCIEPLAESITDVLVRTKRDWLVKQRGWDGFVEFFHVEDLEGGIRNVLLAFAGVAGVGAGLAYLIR

[6] = molecular target: Polyadenylate-binding protein 1 (Homo sapiens, UniProt P11940); experiment: PABP poly(A) RNA binding inhibitors, primary screen, biochemical, fluorescence polarization, uHTS (AID 2014)
[7] = molecular target: T1, Alkaline phosphatase, tissue-nonspecific isozyme (Homo sapiens, UniProt P05186); experiment: TNAP enzyme activators, dose response, selectivity assay for mouse IAP activator project, biochemical, TNAP isozyme, mouse IAP uHTS hits (AID 488880); type: functional
T1 sequence (P05186 whole entry): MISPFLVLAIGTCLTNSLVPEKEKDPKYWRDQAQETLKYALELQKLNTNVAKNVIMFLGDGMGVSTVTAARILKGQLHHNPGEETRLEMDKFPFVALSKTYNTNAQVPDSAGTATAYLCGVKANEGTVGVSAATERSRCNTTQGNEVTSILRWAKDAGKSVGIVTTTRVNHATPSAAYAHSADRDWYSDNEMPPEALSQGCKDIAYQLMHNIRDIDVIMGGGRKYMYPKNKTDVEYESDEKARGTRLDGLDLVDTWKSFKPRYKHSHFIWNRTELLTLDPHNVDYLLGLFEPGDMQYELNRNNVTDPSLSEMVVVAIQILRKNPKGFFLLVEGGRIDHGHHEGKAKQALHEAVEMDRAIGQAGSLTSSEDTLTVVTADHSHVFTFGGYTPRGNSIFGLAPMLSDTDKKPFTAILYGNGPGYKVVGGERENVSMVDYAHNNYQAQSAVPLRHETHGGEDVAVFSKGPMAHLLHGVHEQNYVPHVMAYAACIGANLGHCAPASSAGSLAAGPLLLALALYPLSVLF

[8] = molecular target: Intestinal-type alkaline phosphatase (Mus musculus, UniProt P24822); experiment: mouse intestinal alkaline phosphatase activators, dose response, biochemical, luminescence, uHTS hits (AID 488783); type: functional
[9] = molecular target: T2, Caspase-6 (Homo sapiens, UniProt P55212); experiment: human caspase-6 inhibitors, dose response, biochemical, VEID-R110 fluorescence, cherry-pick (AID 720632)
T2 sequence (P55212 whole entry): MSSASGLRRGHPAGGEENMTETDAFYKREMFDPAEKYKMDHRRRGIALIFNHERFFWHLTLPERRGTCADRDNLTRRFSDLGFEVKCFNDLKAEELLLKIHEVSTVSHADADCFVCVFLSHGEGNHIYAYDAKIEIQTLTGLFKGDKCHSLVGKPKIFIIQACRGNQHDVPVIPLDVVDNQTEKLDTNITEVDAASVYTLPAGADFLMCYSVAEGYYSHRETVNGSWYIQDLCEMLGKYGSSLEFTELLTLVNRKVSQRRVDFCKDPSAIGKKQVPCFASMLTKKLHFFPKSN

[10] = molecular target: Albumin (Bos taurus, UniProt P02769); experiment: Counterscreen for inhibitors of T-cell receptor (TCR)-CD3 interaction: Fluorescence-based biochemical high throughput dose response assay to identify inhibitors of T-cell receptor (TCR)-CD3 interaction using a TAMRA-labeled BSA probe.; type: functional
[11] = molecular target: Ras and Rab interactor 1/Tyrosine-protein kinase ABL1 (Homo sapiens, UniProt P00519+Q13671); type: functional;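 note: biochemical TR-FRET dose-response test measuring inhibition of binding between Rin1 and Abl proteins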
Sequence of Ras and Rab interactor 1/Tyrosine-protein kinase ABL1 (P00519 whole entry): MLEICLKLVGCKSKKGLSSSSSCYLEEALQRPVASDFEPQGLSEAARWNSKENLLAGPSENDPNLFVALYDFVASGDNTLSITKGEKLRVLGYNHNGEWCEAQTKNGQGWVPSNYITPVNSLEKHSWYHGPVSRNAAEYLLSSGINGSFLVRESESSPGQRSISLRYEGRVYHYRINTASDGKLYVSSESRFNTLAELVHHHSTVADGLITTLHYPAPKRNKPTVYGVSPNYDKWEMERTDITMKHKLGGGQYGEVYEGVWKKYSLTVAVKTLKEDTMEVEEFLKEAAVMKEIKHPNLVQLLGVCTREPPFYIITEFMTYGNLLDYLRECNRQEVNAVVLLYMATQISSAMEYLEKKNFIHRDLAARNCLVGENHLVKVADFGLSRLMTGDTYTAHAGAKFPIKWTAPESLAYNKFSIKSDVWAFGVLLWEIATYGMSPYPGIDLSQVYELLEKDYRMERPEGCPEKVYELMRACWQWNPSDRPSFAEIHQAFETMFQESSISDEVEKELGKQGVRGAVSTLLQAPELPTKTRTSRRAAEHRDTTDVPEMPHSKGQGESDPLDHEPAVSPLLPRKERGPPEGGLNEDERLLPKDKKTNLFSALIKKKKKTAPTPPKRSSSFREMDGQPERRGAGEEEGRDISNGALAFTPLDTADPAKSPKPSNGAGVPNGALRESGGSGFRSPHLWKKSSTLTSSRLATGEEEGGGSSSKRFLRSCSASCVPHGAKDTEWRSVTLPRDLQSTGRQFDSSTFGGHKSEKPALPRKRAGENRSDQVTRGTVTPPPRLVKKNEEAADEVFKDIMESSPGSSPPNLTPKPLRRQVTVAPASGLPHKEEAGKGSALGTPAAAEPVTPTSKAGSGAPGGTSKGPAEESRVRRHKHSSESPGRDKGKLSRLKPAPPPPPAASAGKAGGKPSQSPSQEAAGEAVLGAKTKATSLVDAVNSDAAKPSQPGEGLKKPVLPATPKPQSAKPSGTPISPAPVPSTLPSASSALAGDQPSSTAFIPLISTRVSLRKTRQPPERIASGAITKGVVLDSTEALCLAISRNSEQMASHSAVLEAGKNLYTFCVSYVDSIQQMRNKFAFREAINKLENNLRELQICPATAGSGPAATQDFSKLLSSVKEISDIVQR
Sequence of Ras and Rab interactor 1/Tyrosine-protein kinase ABL1 (Q13671 whole entry): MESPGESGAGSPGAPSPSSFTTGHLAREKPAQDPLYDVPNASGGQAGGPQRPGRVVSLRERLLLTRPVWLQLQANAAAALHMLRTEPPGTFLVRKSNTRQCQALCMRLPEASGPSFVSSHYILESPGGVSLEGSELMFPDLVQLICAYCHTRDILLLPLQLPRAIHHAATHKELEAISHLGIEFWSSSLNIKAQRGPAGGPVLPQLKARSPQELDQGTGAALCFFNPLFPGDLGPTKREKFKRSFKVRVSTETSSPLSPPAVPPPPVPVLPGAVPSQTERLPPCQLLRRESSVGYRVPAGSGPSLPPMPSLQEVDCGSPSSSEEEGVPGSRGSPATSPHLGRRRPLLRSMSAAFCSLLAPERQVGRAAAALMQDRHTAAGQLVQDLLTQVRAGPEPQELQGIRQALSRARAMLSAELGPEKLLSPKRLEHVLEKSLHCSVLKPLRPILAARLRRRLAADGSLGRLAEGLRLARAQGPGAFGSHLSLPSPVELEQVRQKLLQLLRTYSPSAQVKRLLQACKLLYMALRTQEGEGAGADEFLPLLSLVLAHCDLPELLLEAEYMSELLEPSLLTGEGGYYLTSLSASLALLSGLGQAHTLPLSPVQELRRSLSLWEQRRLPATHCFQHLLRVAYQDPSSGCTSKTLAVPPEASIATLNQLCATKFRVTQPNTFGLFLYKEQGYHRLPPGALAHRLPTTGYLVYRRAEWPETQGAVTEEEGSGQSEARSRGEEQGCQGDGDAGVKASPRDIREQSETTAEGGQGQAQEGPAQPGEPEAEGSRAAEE

[12] = molecular target: T3, G-protein coupled receptor 35 (Homo sapiens, UniProt Q9HC97); experiment: SAR analysis of Agonists of the GPR35 Receptor using an Image-Based Assay - Set 2. [Related pubchem assays (depositor defined):AID2013, AID2026]; type: functional
T3 sequence (Q9HC97 whole entry): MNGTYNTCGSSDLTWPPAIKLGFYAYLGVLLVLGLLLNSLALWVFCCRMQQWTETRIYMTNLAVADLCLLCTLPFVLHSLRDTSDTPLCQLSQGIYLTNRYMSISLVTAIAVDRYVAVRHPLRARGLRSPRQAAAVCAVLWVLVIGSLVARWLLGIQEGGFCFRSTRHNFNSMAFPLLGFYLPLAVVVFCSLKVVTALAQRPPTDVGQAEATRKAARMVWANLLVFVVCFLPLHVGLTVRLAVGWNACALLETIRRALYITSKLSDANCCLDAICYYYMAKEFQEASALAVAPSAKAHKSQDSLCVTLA

[13] = molecular target: T4, G-protein coupled receptor 55 (Homo sapiens, UniProt Q9Y2T6); experiment: GPR55 antagonist potency of analogs, SAR follow-up, imaging, U2OS, beta-arrestin-GFP, LPI agonist, set 2 (AID 2820); type: functional
T4 sequence (Q9Y2T6 whole entry): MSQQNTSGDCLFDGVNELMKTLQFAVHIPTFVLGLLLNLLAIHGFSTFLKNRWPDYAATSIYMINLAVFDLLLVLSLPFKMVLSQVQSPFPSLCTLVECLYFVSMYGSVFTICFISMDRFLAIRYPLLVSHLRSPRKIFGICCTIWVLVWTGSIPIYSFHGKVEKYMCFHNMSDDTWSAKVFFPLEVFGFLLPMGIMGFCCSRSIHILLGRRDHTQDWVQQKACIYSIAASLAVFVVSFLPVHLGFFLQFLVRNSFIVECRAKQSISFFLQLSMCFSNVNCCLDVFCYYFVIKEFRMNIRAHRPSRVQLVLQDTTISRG

[14] = molecular target: T4, G-protein coupled receptor 55; experiment: GPR55 antagonists blocking LPI-driven arrestin recruitment, primary screen, imaging, U2OS, beta-arrestin-GFP, LPI agonist (AID 2013); type: functional;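 note: antagonist potency measured as reduced agonist-driven arrestin aggregation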
[15] = molecular target: T5, Cannabinoid receptor 2 (Homo sapiens, UniProt P34972); experiment: SAR analysis of antagonists of the Cannabinoid Receptor 2 using an Image-Based Assay. [Related pubchem assays (depositor defined):AID2013, AID2026]; type: functional
T5 sequence (P34972 whole entry): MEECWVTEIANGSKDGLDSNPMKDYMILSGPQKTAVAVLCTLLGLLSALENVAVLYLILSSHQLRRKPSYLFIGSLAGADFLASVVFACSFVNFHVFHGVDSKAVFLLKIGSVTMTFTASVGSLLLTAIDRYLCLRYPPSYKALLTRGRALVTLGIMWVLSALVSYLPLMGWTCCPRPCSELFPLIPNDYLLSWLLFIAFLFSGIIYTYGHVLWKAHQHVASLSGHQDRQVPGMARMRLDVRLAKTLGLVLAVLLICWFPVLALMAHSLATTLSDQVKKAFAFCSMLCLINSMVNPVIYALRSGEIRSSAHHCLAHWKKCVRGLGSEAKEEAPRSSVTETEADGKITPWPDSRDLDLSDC

[16] = molecular target: T6, Cannabinoid receptor 1 (Homo sapiens, UniProt P21554); experiment: SAR analysis of antagonists of the Cannabinoid Receptor 1 using an Image-Based Assay - Set 2. [Related pubchem assays (depositor defined):AID2013, AID2026]; type: functional
T6 sequence (P21554 whole entry): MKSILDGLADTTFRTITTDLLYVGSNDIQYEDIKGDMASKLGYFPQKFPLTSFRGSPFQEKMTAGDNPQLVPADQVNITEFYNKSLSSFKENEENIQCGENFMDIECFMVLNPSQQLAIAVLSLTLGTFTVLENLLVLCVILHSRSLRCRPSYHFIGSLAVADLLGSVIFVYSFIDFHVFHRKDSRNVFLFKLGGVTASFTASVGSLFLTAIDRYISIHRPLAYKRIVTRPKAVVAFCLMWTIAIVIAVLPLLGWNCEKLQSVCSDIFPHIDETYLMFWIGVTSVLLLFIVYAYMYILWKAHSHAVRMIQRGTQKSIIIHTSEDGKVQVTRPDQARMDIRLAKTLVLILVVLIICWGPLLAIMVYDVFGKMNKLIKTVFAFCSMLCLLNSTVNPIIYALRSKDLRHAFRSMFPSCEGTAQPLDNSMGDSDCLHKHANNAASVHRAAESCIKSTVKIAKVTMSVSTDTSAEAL

[17] = molecular target: T6, Cannabinoid receptor 1; experiment: SAR analysis of agonists of the Cannabinoid Receptor 1 using an Image-Based Assay - Set 2. [Related pubchem assays (depositor defined):AID2013, AID2026]; type: functional
[18] = molecular target: T5, Cannabinoid receptor 2; experiment: SAR analysis of agonists of the Cannabinoid Receptor 2 using an Image-Based Assay. [Related pubchem assays (depositor defined):AID2013, AID2026]; type: functional
[19] = molecular target: T3, G-protein coupled receptor 35; experiment: SAR analysis of Antagonists of the GPR35 Receptor using an Image-Based Assay - Set 3. [Related pubchem assays (depositor defined):AID2013, AID2026]; type: functional
[20] = molecular target: T7, Streptokinase A (Streptococcus pyogenes serotype M1, UniProt P10520); experiment: S. pyogenes streptokinase expression inhibitors, potency, dose response, plasminogen activation absorbance, OD405 (AID 1914); type: functional, Streptococcus pyogenes M1 GAS;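 note: secreted streptokinase activity via plasminogen activation per viability signal from cell pellet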
T7 sequence (P10520 whole entry): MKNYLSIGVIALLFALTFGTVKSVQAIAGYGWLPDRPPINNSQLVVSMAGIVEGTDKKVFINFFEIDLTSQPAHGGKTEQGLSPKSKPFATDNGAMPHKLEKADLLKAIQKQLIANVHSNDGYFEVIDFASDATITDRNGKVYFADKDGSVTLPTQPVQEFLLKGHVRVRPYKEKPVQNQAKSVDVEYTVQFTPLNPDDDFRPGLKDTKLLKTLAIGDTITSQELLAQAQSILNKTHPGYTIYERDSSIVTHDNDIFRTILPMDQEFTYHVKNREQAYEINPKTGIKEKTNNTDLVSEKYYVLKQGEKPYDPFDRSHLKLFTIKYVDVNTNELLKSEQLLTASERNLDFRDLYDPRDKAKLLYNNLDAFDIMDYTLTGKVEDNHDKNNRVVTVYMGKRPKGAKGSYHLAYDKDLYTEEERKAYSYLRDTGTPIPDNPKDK

[21] = molecular target: T8, Kappa-type opioid receptor (Homo sapiens, UniProt P41145); experiment: SAR analysis of Antagonists of the Kappa Opioid Receptor (KOR) using an Image-Based Assay - Set 4. [Related pubchem assays (depositor defined):AID1777, AID1785]; type: functional
T8 sequence (P41145 whole entry): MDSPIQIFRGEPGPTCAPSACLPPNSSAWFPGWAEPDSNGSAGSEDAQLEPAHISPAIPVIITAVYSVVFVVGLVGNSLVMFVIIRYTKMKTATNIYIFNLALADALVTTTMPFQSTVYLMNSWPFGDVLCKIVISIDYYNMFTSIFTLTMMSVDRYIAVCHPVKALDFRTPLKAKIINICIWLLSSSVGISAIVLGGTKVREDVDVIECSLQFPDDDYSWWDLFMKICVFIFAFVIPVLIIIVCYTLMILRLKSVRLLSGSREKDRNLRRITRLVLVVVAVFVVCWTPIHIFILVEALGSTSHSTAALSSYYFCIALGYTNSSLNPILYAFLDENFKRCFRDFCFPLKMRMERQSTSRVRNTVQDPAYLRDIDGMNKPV

[22] = molecular target: T8, Kappa-type opioid receptor; experiment: SAR analysis of small molecule agonists of the kappa opioid receptor via a luminescent beta-arrestin assay - Set 3. [Related pubchem assays (depositor defined):AID1777, AID1785, AID1786, AID1966, AID2133, AID2136, AID2284, AID2500]; type: functional
[23] = molecular target: Delta-type opioid receptor (Homo sapiens, UniProt P41143); experiment: SAR Analysis of Antagonists of the DOR Receptor using an Image-Based Assay - Set 3. [Related pubchem assays (depositor defined):AID1777, AID1785]; type: functional;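 note: U2OS cells expressing DOR1 and beta-arrestin GFP stimulated with 100 nM SNC80; imaging of GFP-tagged beta-arrestin moving into spots after receptor activation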
[24] = molecular target: Mu-type opioid receptor (Homo sapiens, UniProt P35372); experiment: SAR Analysis of Antagonists of the MOR Receptor using an Image-Based Assay - Set 3. [Related pubchem assays (depositor defined):AID1777, AID1785, AID1786, AID1966, AID2133, AID2136, AID2284, AID2285, AID2420]; type: functional
[25] = molecular target: T9, Tyrosine-protein phosphatase non-receptor type 22 (Homo sapiens, UniProt Q9Y2R2); experiment: SAR LYP1 Fluorescent Assay using OMFP substrate for In Vitro dose response studies - Set 3. [Related pubchem assays (depositor defined):AID1779, AID1784, AID2140, AID2686]; type: functional
T9 sequence (Q9Y2R2 whole entry): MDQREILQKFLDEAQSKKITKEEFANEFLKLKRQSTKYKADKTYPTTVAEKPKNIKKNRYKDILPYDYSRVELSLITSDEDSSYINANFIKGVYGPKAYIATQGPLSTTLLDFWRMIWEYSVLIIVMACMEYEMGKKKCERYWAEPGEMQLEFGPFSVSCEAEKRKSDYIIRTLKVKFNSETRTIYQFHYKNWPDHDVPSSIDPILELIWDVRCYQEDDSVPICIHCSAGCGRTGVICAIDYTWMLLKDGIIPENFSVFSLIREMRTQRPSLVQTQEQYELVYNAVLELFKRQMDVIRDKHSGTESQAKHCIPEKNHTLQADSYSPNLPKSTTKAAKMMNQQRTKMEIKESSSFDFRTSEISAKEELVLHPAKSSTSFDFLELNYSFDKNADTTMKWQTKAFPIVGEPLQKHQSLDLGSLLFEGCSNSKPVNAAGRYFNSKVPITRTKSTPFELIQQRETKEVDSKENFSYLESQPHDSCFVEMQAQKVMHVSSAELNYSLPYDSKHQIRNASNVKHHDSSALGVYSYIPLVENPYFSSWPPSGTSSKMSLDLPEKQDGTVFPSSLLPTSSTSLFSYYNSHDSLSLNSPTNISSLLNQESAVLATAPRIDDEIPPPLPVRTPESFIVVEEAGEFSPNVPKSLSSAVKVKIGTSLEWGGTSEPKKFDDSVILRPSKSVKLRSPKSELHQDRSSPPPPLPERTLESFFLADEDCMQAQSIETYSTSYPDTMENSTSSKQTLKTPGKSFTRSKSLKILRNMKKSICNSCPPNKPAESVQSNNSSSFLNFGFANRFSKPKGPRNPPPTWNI

[26] = molecular target: T10, Tyrosine-protein phosphatase non-receptor type 7 (Homo sapiens, UniProt P35236); experiment: HePTP (PTPN7) phosphatase inhibitor potency, SAR follow-up, biochemical, set 2 (AID 449736); type: functional
T10 sequence (P35236 whole entry): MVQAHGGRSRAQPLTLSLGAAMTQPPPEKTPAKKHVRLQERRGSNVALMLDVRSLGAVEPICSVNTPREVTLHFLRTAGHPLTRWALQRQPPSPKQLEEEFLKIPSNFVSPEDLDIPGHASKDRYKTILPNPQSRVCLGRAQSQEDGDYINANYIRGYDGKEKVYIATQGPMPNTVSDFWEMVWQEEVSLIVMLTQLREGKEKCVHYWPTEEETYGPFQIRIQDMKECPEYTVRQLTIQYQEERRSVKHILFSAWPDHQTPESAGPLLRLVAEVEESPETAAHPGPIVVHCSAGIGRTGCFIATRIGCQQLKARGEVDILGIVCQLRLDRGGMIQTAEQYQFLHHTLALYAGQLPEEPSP

[27] = molecular target: Tyrosine-protein phosphatase non-receptor type 12 (Homo sapiens, UniProt Q05209); experiment: SAR Selectivity Analysis of small molecule inhibitors of PEST using pCAP in a fluorescence assay. [Related pubchem assays (depositor defined):AID1779, AID1784, AID2135]; type: functional
[28] = molecular target: T9, Tyrosine-protein phosphatase non-receptor type 22; experiment: SAR LYP1 Fluorescent Assay using pCAP substrate for In Vitro dose response studies - Set 2. [Related pubchem assays (depositor defined):AID1779, AID1784, AID2135, AID449727]; type: functional
[29] = molecular target: T9, Tyrosine-protein phosphatase non-receptor type 22; experiment: SAR LYP1 Fluorescent Assay using OMFP substrate for In Vitro dose response studies - Set 2. [Related pubchem assays (depositor defined):AID1779, AID1784, AID2140, AID449726, AID488869]; type: functional
[30] = molecular target: T9, Tyrosine-protein phosphatase non-receptor type 22; experiment: LYP (PTPN22) phosphatase inhibitor potency, SAR follow-up, biochemical, pCAP fluorogenic substrate, fluorescence, set 3 (AID 449727); type: functional

Structure (SMILES): O=C(O)CC(CCc1ccccc1)OC1OC(CO)C(O)C(O)C1O (stereo not given)
- EC50 [1]: 59.2 µM (active)
- IC50 [2]: 57.6 µM (active)
- AC50 [3]: 30.9 µM (active)
- IC50 [4]: 23.6 µM (active)
- IC50 [5]: 1.61 µM (active)
- IC50 [6]: 69.4 µM (active)
- EC50 [7]: 57.6 µM (active)
- EC50 [8]: 33.7 µM (active)
- AC50 [9]: 0.283 µM (active)
- IC50 [10]: > 94.1 µM (inactive)
- IC50 [11]: 50.2 µM (inactive)

Structure (SMILES): COc1ccc(NS(=O)(=O)c2ccc3nc(COc4cccc5ccccc45)[nH]c3c2)cc1
- EC50 [12]: > 32 µM (inactive)
- IC50 [13]: 1.45 µM (active)
- IC50 [14]: 1.76 µM (active)
- IC50 [15]: > 32 µM (inactive)
- IC50 [16]: 2.24 µM (active)
- EC50 [17]: > 32 µM (inactive)
- EC50 [18]: > 32 µM (inactive)
- IC50 [19]: > 32 µM (inactive)
- EC50 [20]: 6.16 µM (active)

Structure (SMILES): CC(C)OC(=O)C1(N(Cc2ccco2)C(=O)c2ccccn2)CCCCC1
- IC50 [21]: > 32 µM (inactive)
- EC50 [22]: > 20 µM (inactive)
- IC50 [23]: > 32 µM (inactive)
- IC50 [24]: 15 µM (inactive)

Structure (SMILES): O=C(O)COc1ccccc1/C=N/NC(=O)c1ccc(-c2csc(Nc3ccc(Cl)cc3)n2)cc1
- IC50 [25]: 1.29 µM (active)
- IC50 [26]: 0.841 µM (active)
- IC50 [27]: 1.49 µM (active)
- IC50 [28]: 4.1 µM (active)
- IC50 [29]: 5.67 µM (active)
- IC50 [30]: 3.5 µM (active)
